Laboratory results as given in patent US20080261973A1, “Sulphonamidoaniline Derivatives Being Janus Kinase Inhibitors” (Novartis AG, priority 2005, published 2008).

First: CS(=O)(=O)Nc1cccc(Nc2nc(OC3CCCC3)c3nc[nH]c3n2)c1 [Example 23, N-[3-(6-Cyclopentyloxy-9H-purin-2-ylamino)-phenyl]-methanesulfonamide]
Second: CS(=O)(=O)Nc1cccc(Nc2nc(OC3CCOC3)c3nc[nH]c3n2)c1 (centres unmarked) [Example 25, N-{3-[6-(Tetrahydro-furan-3-yloxy)-9H-purin-2-ylamino]-phenyl}-methanesulfonamide]
The melting point of the first is lower: 137 to 140 °C for the first, 255 to 257 °C for the second.

First: CC(C)[C@@H](CO)Nc1nc(Nc2cccc(NS(C)(=O)=O)c2)nc2[nH]ccc12 [Example 84, N-{3-[4-((S)-1-Hydroxymethyl-2-methyl-propylamino)-7H-pyrrolo[2,3-d]pyrimidin-2-ylamino]-phenyl}-methanesulfonamide]
Second: C[C@@H](Nc1nc(Nc2cccc(NS(C)(=O)=O)c2)nc2[nH]ccc12)C(C)(C)C [Example 49, N-{3-[4-((R)-1,2,2-Trimethyl-propylamino)-7H-pyrrolo[2,3-d]pyrimidin-2-ylamino]-phenyl}-methanesulfonamide]
The melting point of the first is lower: 106 to 109 °C for the first, 125 to 128 °C for the second.

First: C=CS(=O)(=O)Nc1cccc(Nc2nc(N[C@H](C)C(C)(C)C)c3nc[nH]c3n2)c1 [Example 97, Ethenesulfonic acid {3-[6-((R)-1,2,2-trimethyl-propylamino)-9H-purin-2-ylamino]-phenyl}-amide]
Second: C[C@@H](Nc1nc(Nc2cccc(NS(C)(=O)=O)c2)nc2[nH]cnc12)C(C)(C)C [Example 39, N-{3-[6-((R)-1,2,2-Trimethyl-propylamino)-9H-purin-2-ylamino]-phenyl}-methanesulfonamide]
The melting point of the first is lower: 133 to 136 °C for the first, 169 to 171 °C for the second.

First: CN(C)CCNc1nc(Nc2cccc(NS(C)(=O)=O)c2)nc2[nH]cnc12 [Example 6, N-(3-{6-[2-Dimethylamino-ethylamino]-9H-purin-2-ylamino]-phenyl}-methanesulfonamide]
Second: CC(C)N(CCNc1nc(Nc2cccc(NS(C)(=O)=O)c2)nc2[nH]cnc12)C(C)C [Example 5, N-(3-{6-[2-Diisopropylamino-ethylamino]-9H-purin-2-ylamino]-phenyl}-methanesulfonamide]
The melting point of the first is lower: 191 to 195 °C for the first, 226 to 230 °C for the second.

First: CS(=O)(=O)Nc1cccc(Nc2nc(NCCN3CCOCC3)c3nc[nH]c3n2)c1 [Example 22, N-{3-[6-(2-Morpholin-4-yl-ethylamino)-9H-purin-2-ylamino]-phenyl}-methanesulfonamide]
Second: CS(=O)(=O)Nc1cccc(Nc2nc(NCC3CCCCN3)c3nc[nH]c3n2)c1 (centres unmarked) [Example 21, N-(3-{6-[(Piperidin-2-ylmethyl)-amino]-9H-purin-2-ylamino}-phenyl)-methanesulfonamide]
The melting point of the first is higher: 233 to 237 °C for the first, 147 to 150 °C for the second.

First: CCC(C)(C)[C@@H](C)Nc1nc(Nc2cccc(NS(C)(=O)=O)c2)nc2[nH]cnc12 [Example 65, N-{3-[6-((R)-1,2,2-Trimethyl-butylamino)-9H-purin-2-ylamino]-phenyl}-methanesulfonamide]
Second: C[C@H](Nc1nc(Nc2cccc(NS(C)(=O)=O)c2)nc2[nH]cnc12)C(C)(C)C [Example 38, N-{3-[6-((S)-1,2,2-Trimethyl-propylamino)-9H-purin-2-ylamino]-phenyl}-methanesulfonamide]
The melting point of the first is lower: 143 to 146 °C for the first, 150 to 153 °C for the second.

First: CS(=O)(=O)Nc1cccc(Nc2nc(NC3CCC3)c3nc[nH]c3n2)c1 [Example 1, N-[3-(6-Cyclobutylamino-9H-purin-2-ylamino)-phenyl]-methanesulfonamide]
Second: CS(=O)(=O)Nc1cccc(Nc2nc(NC3CCCC3)c3nc[nH]c3n2)c1 [Example 37, N-[3-(6-Cyclopentylamino-9H-purin-2-ylamino)-phenyl]-methanesulfonamide]
The melting point of the first is lower: 142 to 146 °C for the first, 234 to 239 °C for the second.

Compared with CS(=O)(=O)Nc1cccc(Nc2nc(N3CCC[C@H]3CO)c3nc[nH]c3n2)c1 [Example 3, N-{3-[6-((S)-2-Hydroxymethyl-pyrrolidin-1-yl)-9H-purin-2-ylamino]-phenyl}-methanesulfonamide], CS(=O)(=O)Nc1cccc(Nc2nc(N3CCC(O)C3)c3nc[nH]c3n2)c1 (centres unmarked) [Example 12, N-{3-[6-(3-Hydroxy-pyrrolidin-1-yl)-9H-purin-2-ylamino]-phenyl}-methanesulfonamide] is higher in melting point: 192 to 197 °C for the first, 243 to 248 °C for the second.

Compared with O=S(=O)(Nc1cccc(Nc2nc(NC3CCCC3)c3nc[nH]c3n2)c1)C(F)(F)F [Example 27, N-[3-(6-Cyclopentylamino-9H-purin-2-ylamino)-phenyl]-C,C,C-trifluoro-methanesulfonamide], CS(=O)(=O)Nc1cccc(Nc2nc(OCC3CCCCC3)c3nc[nH]c3n2)c1 [Example 24, N-[3-(6-Cyclohexylmethoxy-9H-purin-2-ylamino)-phenyl]-methanesulfonamide] is lower in melting point: 243 to 246 °C for the first, 169 to 172 °C for the second.

First: CC(=O)Nc1cccc(CNc2nc(Nc3cccc(NS(C)(=O)=O)c3)nc3[nH]cnc23)c1 [Example 64, N-(3-{[2-(3-Methanesulfonylamino-phenylamino)-9H-purin-6-ylamino]-methyl}-phenyl)-acetamide]
Second: CS(=O)(=O)Nc1cccc(Nc2nc(NCc3cccc(O)c3)c3nc[nH]c3n2)c1 [Example 73, N-{3-[6-(3-Hydroxy-benzylamino)-9H-purin-2-ylamino]-phenyl}-methanesulfonamide]
The melting point of the first is lower: 159 to 162 °C for the first, 221 to 225 °C for the second.

C[C@H](Nc1nc(Nc2cccc(NS(C)(=O)=O)c2)nc2[nH]ccc12)C(C)(C)C [Example 51, N-{3-[4-((S)-1,2,2-Trimethyl-propylamino)-7H-pyrrolo[2,3-d]pyrimidin-2-ylamino]-phenyl}-methanesulfonamide] and CC(C)N(CCO)c1nc(Nc2cccc(NS(C)(=O)=O)c2)nc2[nH]ccc12 [Example 87, N-(3-{4-[(2-Hydroxy-ethyl)-isopropyl-amino]-7H-pyrrolo[2,3-d]pyrimidin-2-ylamino}-phenyl)-methanesulfonamide] cannot be ordered by melting point: 128 to 132 °C for the first, 129 to 132 °C for the second.

First: CS(=O)(=O)Nc1cccc(Nc2nc(NCCc3ccccn3)c3nc[nH]c3n2)c1 [Example 10, N-{3-[6-(2-Pyridin-2-yl-ethylamino)-9H-purin-2-ylamino]-phenyl}-methanesulfonamide]
Second: CS(=O)(=O)Nc1cccc(Nc2nc(NCc3cccnc3)c3nc[nH]c3n2)c1 [Example 15, N-(3-{6-[(Pyridin-3-ylmethyl)-amino]-9H-purin-2-ylamino}-phenyl)-methanesulfonamide]
The melting point of the first is higher: 199 to 202 °C for the first, 144 to 147 °C for the second.

First: CS(=O)(=O)Nc1cccc(Nc2nc(NCc3cccc(N)c3)c3nc[nH]c3n2)c1 [Example 72, N-{3-[6-(3-Amino-benzylamino)-9H-purin-2-ylamino]-phenyl}-methanesulfonamide]
Second: CS(=O)(=O)Nc1cccc(Nc2nc(NCc3cccc(C#N)c3)c3nc[nH]c3n2)c1 [Example 78, N-{3-[6-(3-Cyano-benzylamino)-9H-purin-2-ylamino]-phenyl}-methanesulfonamide]
The melting point of the first is higher: 170 to 173 °C for the first, 128 to 131 °C for the second.

CC[C@H](Nc1nc(Nc2cccc(NS(C)(=O)=O)c2)nc2[nH]cnc12)c1ccccc1 [Example 92, N-{3-[6-((S)-1-Phenyl-propylamino)-9H-purin-2-ylamino]-phenyl}-methanesulfonamide] and C[C@@H](Nc1nc(Nc2cccc(NS(C)(=O)=O)c2)nc2[nH]cnc12)c1ccccc1 [Example 41, N-{3-[6-((R)-1-Phenyl-ethylamino)-9H-purin-2-ylamino]-phenyl}-methanesulfonamide] cannot be ordered by melting point: 138 to 141 °C for the first, 136 to 139 °C for the second.

Compared with CS(=O)(=O)Nc1cccc(Nc2nc(NCc3ncc[nH]3)c3nc[nH]c3n2)c1 [Example 45, N-(3-{6-[(1H-Imidazol-2-ylmethyl)-amino]-9H-purin-2-ylamino}-phenyl)-methanesulfonamide], CC(C)(C)CNc1nc(Nc2cccc(NS(C)(=O)=O)c2)nc2[nH]cnc12 [Example 50, N-{3-[6-(2,2-Dimethyl-propylamino)-9H-purin-2-ylamino]-phenyl}-methanesulfonamide] is higher in melting point: 216 to 220 °C for the first, 270 to 273 °C for the second.

Compared with CS(=O)(=O)Nc1cccc(Nc2nc(N3CCCC3)c3nc[nH]c3n2)c1 [Example 14, N-[3-(6-Pyrrolidin-1-yl-9H-purin-2-ylamino)-phenyl]-methanesulfonamide], CN1CCN(c2nc(Nc3cccc(NS(C)(=O)=O)c3)nc3[nH]cnc23)CC1 [Example 18, N-{3-[6-(4-Methyl-piperazin-1-yl)-9H-purin-2-ylamino]-phenyl}-methanesulfonamide] is lower in melting point: 164 to 168 °C for the first, 148 to 151 °C for the second.

First: COCCOc1nc(Nc2cccc(NS(C)(=O)=O)c2)nc2[nH]cnc12 [Example 32, N-{3-[6-(2-Methoxy-ethoxy)-9H-purin-2-ylamino]-phenyl}-methanesulfonamide]
Second: CN(CCC#N)c1nc(Nc2cccc(NS(C)(=O)=O)c2)nc2[nH]cnc12 [Example 8, N-(3-{6-[(2-Cyano-ethyl)-methyl-amino]-9H-purin-2-ylamino}-phenyl)-methanesulfonamide]
The melting point of the first is lower: 201 to 204 °C for the first, 218 to 222 °C for the second.

First: CN(C)c1cccc(CNc2nc(Nc3cccc(NS(C)(=O)=O)c3)nc3[nH]cnc23)c1 [Example 31, N-{3-[6-(3-Dimethylamino-benzylamino)-9H-purin-2-ylamino]-phenyl}-methanesulfonamide]
Second: CC(C)N(C)c1nc(Nc2cccc(NS(C)(=O)=O)c2)nc2[nH]cnc12 [Example 36, N-{3-[6-(Isopropyl-methyl-amino)-9H-purin-2-ylamino]-phenyl}-methanesulfonamide]
The melting point of the first is higher: 148 to 151 °C for the first, 144 to 147 °C for the second.

Compared with CS(=O)(=O)Nc1cccc(Nc2nc(OC3CCCC3)c3cc[nH]c3n2)c1 [Example 43, N-[3-(4-Cyclopentyloxy-7H-pyrrolo[2,3-d]pyrimidin-2-ylamino)-phenyl]-methanesulfonamide], CS(=O)(=O)Nc1cccc(Nc2nc(Oc3ccc(F)cc3)c3nc[nH]c3n2)c1 [Example 46, N-{3-[6-(4-Fluoro-phenoxy)-9H-purin-2-ylamino]-phenyl}-methanesulfonamide] is lower in melting point: 203 to 205 °C for the first, 136 to 139 °C for the second.
